Source: US20170217982A1, “Compound isolated from Pseudolysimachion rotundum var. subintegrum, the composition comprising the same for treating allergic disease, inflammatory disease, asthma or chronic obstructive pulmonary disease and the use thereof” (YUNGJIN PHARMACEUTICAL CO., LTD, priority 2014, published 2017)

Tested on: COPD induced mice
Test: Anti-COPD effect in cigarette smoke + LPS COPD mouse model
Type: in vivo, C57BL/6N mouse
Details: 10 mg/kg p.o.
Method: In order to determine the anti-COPD effect of inventive compounds in COPD animal model, following test was performed by using COPD induced mice as disclosed in the literature (Bhaysar, T. et al., J. Chronic Obstr. […]. Dis., 2008, 3, 477-481). Specific pathogen-free male C57BL/6N mouse (about 22-24 g), aged 6 weeks, which were routinely screened serologically for relevant respiratory pathogens, were purchased from Koatech Co. (koatech.co.kr, Seoul, Korea) and bred allowing to access freely to feed (antibiotic free, Samyang Oil & Feed Corp., Korea) and water in breeding room controlling the temperature of 22±2° C., and humidity of 55±15% at the light-dark cycle for 12 hours and acclimated with the experimental environment for 1 week. 2 kinds of test samples, […] ingredient: Roflumilast, 10 mg/kg) were dissolved in 0.5% sodium carboxymethyl cellulose ([…], Sigma-Aldrich, USA) and used as test samples. KS534, and Rolflumilast (ROF 11-492, HETERO, India) were orally administrated to the mice, 1 hour before prior the intratracheal instillation (i.t.). 3R4F Kentuchy Reference Cigarettes ([…], USA) was used as a standard cigarette for generating a cigarette smoke. The cigarette containing 9.4 mg of tar, 11 mg of TPM (total particle matter) and 12 mg of carbon monooxide per piece, was used after harmonizing with the temperature of 22±1° C. and humidity of 60±2% after opening for 48-72 hrs. The exposure of cigarette smoke was performed by using a cigarette smoke generator (DBL Co. Ltd., dhbiolink.com, Korea). The mice were divided into five groups: normal (NC), COPD (cigarette smoke with LPS intranasal instillation), Rof (10 mg/kg of roflumilast, p.o.+cigarette smoke with LPS intranasal instillation), and KS534-15 and 30 (15 mg/kg and 30 mg/kg of KS534, p.o.+cigarette smoke with LPS instillation, respectively). Exposure of cigarette smoke (one puff/min, 35 ml puff volume over 2 s, every 60 s, 8 cigarettes per day) was conducted using a cigarette smoke generator. The mice received 1 h of cigarette smoke exposure in an exposure chamber (50 cm×30 cm×30 cm) for 3 days. Roflumilast and piscroside C were administered to mice by oral lavage 1 h before cigarette smoke exposure for 3 days. LPS was intranasally instilled ([…] dissolved in 50 μL distilled water) under anesthesia 1 h after the final exposure to cigarette smoke. After the end of experiment, the blood, BALF, and pneumonocyte of each rat were isolated and collected to test. After finishing the experiment, rats were anaesthetized with Zoleti150 (3VX9, Virbac, France, p.o) and the blood was delivered through caudal veins. In order to isolate BALF from lung, the bronchus of right lung was ligated with suture and then performed to tracheostomy. IV-use catheter (16 GA, 3S-Cath, Dukwoo, Korea) was put into the bronchus, and both of bronchus and catheter (16 GA, 3S-Cath, Dukwoo, Korea) were fixed with suture. The injector containing 1 ml of DPBS 0.7 (Dubecco's phosphate-buffered saline, Invitrogen, USA) was connected thereto and DPBS was forced to circulate three times to isolate BALF. The right lung ligated with suture was isolated, fixed with 10% neutral formalin solution, and the remaining lung tissue was reserved in refrigerator at -70° C. The isolated BALF was centrifuged for 15 mins at 1500 rpm to prepare cell pellet and the supernatant was reserved in refrigerator at -70° C. for cytokine analysis. The cell pellet was suspended in DPBS, and the cell was attached to a slide glass using by cytospin centrifuge (CS03270047, Hanil, Korea). Diff-Quik staining (ZS1003, Sysmex, Japan) was performed and the cell was observed by optical microscopy (DM1000, Leica, German) to count the number of immunocyte in each test sample. The level of ROS in BALF isolated from the mice was determined by DCF-DA (dihydrodo chloro fluoresce indiacetate, 35854, Sigma-Aldrich, USA) and the final concentration of DCF-DA was adjusted to 20 μm in 200 μL to incubate 30 mins. […]

## O=C(Nc1c(Cl)cncc1Cl)c1ccc(OC(F)F)c(OCC2CC2)c1 [Roflumilast, reference compound]
COPD mice
  level of proteins in BALF compared with COPD induced group: significant reduction
  reduced level of ROS in BALF comparing with COPD induced group: about 22.2%
  reduced level of neutrophils in BALF comparing with COPD induced group: about 21.1%
COPD mice (FIG. 14)
  invasion of the inflamed cells in lung tissue (histology): significantly reduced
COPD mice, ELISA
  level of IL-6 in BALF compared with COPD induced group: significant reduction
  level of TNF-alpha in BALF compared with COPD induced group: significant reduction
